Reference: patent publication US20150087673A1, “METHODS FOR USING AND BIOMARKERS FOR AMPK-ACTIVATING COMPOUNDS” (RIGEL PHARMACEUTICALS, INC., priority 2013, published 2015)

Test system: AMPK
Assay: AMPK activation assay (enzyme-linked immunosorbent assay)
Format: cell-based
Summary of the method: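 Kit-based immunoassay; compounds screened as activators; standard reagents and protocol.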

Row | EC50 | SMILES
1 | < 0.5 µM | N#Cc1ccc(CN2CCC(NC(=O)c3ccc(C(=O)N4CCC(Oc5ccc(NC(=O)C6CC6)cc5)CC4)nc3)CC2)cc1 [Compound 409, N-(1-(4-cyanobenzyl)piperidin-4-yl)-6-(4-(4-(cyclopropanecarboxamido)phenoxy)piperidine-1-carbonyl)nicotinamide]
2 | 5 to 10 µM | N#Cc1ccc(CC2CCC(NC(=O)c3cccc(C(=O)N4CCN(Cc5ccc(F)cc5)CC4)n3)CC2)cc1 (stereo not drawn) [Compound 99, N-(4-(4-cyanobenzyl)cyclohexyl)-6-(4-(4-fluorobenzyl)piperazine-1-carbonyl)picolinamide]
3 | < 0.5 µM | CC(C)(C)OC(=O)NCCCc1cc(C(=O)N2CCN(Cc3ccc(F)cc3)CC2)cnc1C(=O)NC1CCN(Cc2ccc(C#N)cc2)CC1 [Compound 290, tert-butyl 3-(2-(1-(4-cyanobenzyl)piperidin-4-ylcarbamoyl)-5-(4-(4-fluorobenzyl)piperazine-1-carbonyl)pyridin-3-yl)propylcarbamate]
4 | 0.5 to 1 µM | N#Cc1ccc(CN2CCC(NC(=O)c3ccc(C(=O)NCCOc4ccc(F)cc4)cn3)CC2)cc1 [Compound 149, N2-(1-(4-cyanobenzyl)piperidin-4-yl)-N5-(2-(4-fluorophenoxy)ethyl)pyridine-2,5-dicarboxamide]
5 | < 0.5 µM | N#Cc1ccc(OC2CN(C(=O)c3ccc(C(=O)NC4CCN(Cc5cc(F)cc(F)c5)CC4)nc3)C2)cc1 [Compound 313, 5-(3-(4-cyanophenoxy)azetidine-1-carbonyl)-N-(1-(3,5-difluorobenzyl)piperidin-4-yl)picolinamide]
6 | < 0.5 µM | COc1ccc(C(=O)C2CCN(C(=O)c3ccc(C(=O)NC4CCN(Cc5ccc(F)cc5)CC4)cn3)CC2)cc1 [Compound 317, N-(1-(4-fluorobenzyl)piperidin-4-yl)-6-(4-(4-methoxybenzoyl)piperidine-1-carbonyl)nicotinamide]
7 | < 0.5 µM | N#Cc1ccc(Cn2cc(NC(=O)c3ccc(C(=O)N4CCN(Cc5ccc(F)cc5)CC4)cn3)cn2)cc1 [Compound 23, N-(1-(4-cyanobenzyl)-1H-pyrazol-4-yl)-5-(4-(4-fluorobenzyl)piperazine-1-carbonyl)picolinamide]
8 | 1 to 5 µM | CC(=O)Nc1cccc(OC2CCN(C(=O)c3ccc(C(=O)Nc4ccc(Oc5ccc(F)cc5)nc4)cn3)CC2)c1 [Compound 414, 6-(4-(3-acetamidophenoxy)piperidine-1-carbonyl)-N-(6-(4-fluorophenoxy)pyridin-3-yl)nicotinamide]
9 | < 0.5 µM | COc1ccc(C(=O)C2CCN(C(=O)c3ccc(C(=O)Nc4ccc(Oc5ccc(S(C)(=O)=O)cc5)nc4)cn3)CC2)cc1 [Compound 465, 6-(4-(4-methoxybenzoyl)piperidine-1-carbonyl)-N-(6-(4-(methylsulfonyl)phenoxy)pyridin-3-yl)nicotinamide]
10 | 0.5 to 1 µM | O=C(NC1CCN(Cc2ccc(F)cc2)CC1)c1ccc(C(=O)N2CCC(Oc3cccc(NC(=O)C4CC4)c3)CC2)nc1 [Compound 432, 6-(4-(3-(cyclopropanecarboxamido)phenoxy)piperidine-1-carbonyl)-N-(1-(4-fluorobenzyl)piperidin-4-yl)nicotinamide]
11 | < 0.5 µM | N#Cc1ccc(CN2CCC(NC(=O)c3ccc(N4CCC(C(=O)c5ccc(Cl)cc5)CC4)cn3)CC2)cc1 [Compound 266, 5-(4-(4-chlorobenzoyl)piperidin-1-yl)-N-(1-(4-cyanobenzyl)piperidin-4-yl)picolinamide]
12 | < 0.5 µM | N#Cc1ccc(CN2CCC(NC(=O)c3ccc(C(=O)N4CCC(C(=O)c5ccc(F)cc5F)CC4)nc3)CC2)cc1 [Compound 346, N-(1-(4-cyanobenzyl)piperidin-4-yl)-6-(4-(2,4-difluorobenzoyl)piperidine-1-carbonyl)nicotinamide]
13 | 0.5 to 1 µM | CC(=O)Nc1ccc(OC2CCN(C(=O)c3ccc(C(=O)NC4CCN(Cc5cccc(OC(F)(F)F)c5)CC4)cn3)CC2)cc1 [Compound 428, 6-(4-(4-acetamidophenoxy)piperidine-1-carbonyl)-N-(1-(3-(trifluoromethoxy)benzyl)piperidin-4-yl)nicotinamide]
14 | 5 to 10 µM | O=C(Nc1cccc(-c2ccccc2)c1)c1ccc(C(=O)N2CCN(Cc3ccc(F)cc3)CC2)cn1 [Compound 12]
15 | < 0.5 µM | O=C(Nc1ccc(Oc2ccc(F)cc2)nc1)c1ccc(C(=O)N2CCC(Oc3ccc(C(=O)C4CC4)cc3)CC2)nc1 [Compound 457, 6-(4-(4-(cyclopropanecarbonyl)phenoxy)piperidine-1-carbonyl)-N-(6-(4-fluorophenoxy)pyridin-3-yl)nicotinamide]
16 | < 0.5 µM | COc1ccc(OC2CCN(C(=O)c3ccc(C(=O)NC4CCN(Cc5ccc(N6CCCC6)cc5)CC4)nc3)CC2)cc1 [Compound 195, 5-(4-(4-methoxyphenoxy)piperidine-1-carbonyl)-N-(1-(4-(pyrrolidin-1-yl)benzyl)piperidin-4-yl)picolinamide]
17 | 1 to 5 µM | COc1ccc(C(=O)C2CCN(C(=O)c3ccc(C(=O)Nc4ccc(S(=O)(=O)c5ccc(F)cc5)nc4)cn3)CC2)cc1 [Compound 467, N-(6-(4-fluorophenylsulfonyl)pyridin-3-yl)-6-(4-(4-methoxybenzoyl)piperidine-1-carbonyl)nicotinamide]

Row | EC50 | SMILES
18 | 0.5 to 1 µM | CS(=O)(=O)c1ccc(OC2CCN(C(=O)c3ccc(C(=O)NC4CCN(Cc5ccc(N6CCCC6)cc5)CC4)cn3)CC2)cc1 [Compound 230, 6-(4-(4-(methylsulfonyl)phenoxy)piperidine-1-carbonyl)-N-(1-(4-(pyrrolidin-1-yl)benzyl)piperidin-4-yl)nicotinamide]
19 | < 0.5 µM | COc1ccc(O[C@H]2CC[C@@H](NC(=O)c3ccc(C(=O)N4CCC(C(=O)c5ccc(OC)cc5)CC4)cn3)CC2)cc1 [Compound 184, 5-(4-(4-methoxybenzoyl)piperidine-1-carbonyl)-N-((cis)-4-(4-methoxyphenoxy)cyclohexyl)picolinamide]
20 | 1 to 5 µM | N#Cc1ccc(CN2CCC3(CCN(C(=O)c4ccc(C(=O)N5CCN(Cc6ccc(F)cc6)CC5)cn4)CC3)C2)cc1 [Compound 15, 4-((8-(5-(4-(4-fluorobenzyl)piperazine-1-carbonyl)picolinoyl)-2,8-diazaspiro[4.5]decan-2-yl)methyl)benzonitrile]
21 | < 0.5 µM | COc1ccc(CN2CCC(NC(=O)c3ccc(C(=O)N4CCC(C(=O)c5ccc(N6CCCC6)cc5)CC4)nc3)CC2)cc1 [Compound 439, N-(1-(4-methoxybenzyl)piperidin-4-yl)-6-(4-(4-(pyrrolidin-1-yl)benzoyl)piperidine-1-carbonyl)nicotinamide]
22 | > 10 µM | N#Cc1ccc(OC2CN(C(=O)c3ccc(C(=O)Nc4ccc(Oc5ccc(F)cc5)nc4)nc3)C2)cc1 [Compound 210, 5-(3-(4-cyanophenoxy)azetidine-1-carbonyl)-N-(6-(4-fluorophenoxy)pyridin-3-yl)picolinamide]
23 | < 0.5 µM | CC(=O)c1ccc(Oc2ccc(NC(=O)c3ccc(C(=O)N4CCC(Oc5ccc(C(=O)N(C)C)cc5)CC4)nc3)cn2)cc1 [Compound 488, N-(6-(4-acetylphenoxy)pyridin-3-yl)-6-(4-(4-(dimethylcarbamoyl)phenoxy)piperidine-1-carbonyl)nicotinamide]
24 | < 0.5 µM | Cc1ccc(CC2CCN(C(=O)c3ccc(C(=O)NC4CCN(Cc5ccc(C#N)cc5)CC4)nc3)CC2)cc1 [Compound 145, N-(1-(4-cyanobenzyl)piperidin-4-yl)-5-(4-(4-methylbenzyl)piperidine-1-carbonyl)picolinamide]
25 | < 0.5 µM | COc1ccc(C(=O)C2CCN(C(=O)c3ccc(C(=O)NC4CCN(Cc5ccc([N+](=O)[O-])cc5)CC4)cn3)CC2)cc1 [Compound 373, 6-(4-(4-methoxybenzoyl)piperidine-1-carbonyl)-N-(1-(4-nitrobenzyl)piperidin-4-yl)nicotinamide]
26 | < 0.5 µM | COc1ccc(N2CCC(NC(=O)c3ccc(C(=O)N4CCC(Oc5ccc(C#N)cc5)CC4)nc3)CC2)cc1 [Compound 423, 6-(4-(4-cyanophenoxy)piperidine-1-carbonyl)-N-(1-(4-methoxyphenyl)piperidin-4-yl)nicotinamide]
27 | < 0.5 µM | N#Cc1ccc(O[C@H]2CC[C@@H](NC(=O)c3ccc(C(=O)N4CCC(Oc5ccc(F)cc5)CC4)cn3)CC2)cc1 [Compound 167, N-((cis)-4-(4-cyanophenoxy)cyclohexyl)-5-(4-(4-fluorophenoxy)piperidine-1-carbonyl)picolinamide]
28 | 1 to 5 µM | O=C(c1ccc(N2CCC(Oc3ccc(C(F)(F)F)cc3)CC2)nc1)N1CCN(Cc2ccc(F)cc2)CC1 [Compound 187, (4-(4-fluorobenzyl)piperazin-1-yl)(6-(4-(4-(trifluoromethyl)phenoxy)piperidin-1-yl)pyridin-3-yl)methanone]
29 | < 0.5 µM | O=C(NC1CCN(Cc2cc(F)cc(F)c2)CC1)c1ccc(C(=O)N2CC[C@H](Oc3ccc(F)cc3)C2)cn1 [Compound 292, N-(1-(3,5-difluorobenzyl)piperidin-4-yl)-5-((S)-3-(4-fluorophenoxy)pyrrolidine-1-carbonyl)picolinamide]
30 | 1 to 5 µM | CC(=O)c1ccc(Oc2ccc(NC(=O)c3ccc(C(=O)N4CCC(S(=O)(=O)c5ccc(F)cc5)CC4)nc3)cn2)cc1 [Compound 473, N-(6-(4-acetylphenoxy)pyridin-3-yl)-6-(4-(4-fluorophenylsulfonyl)piperidine-1-carbonyl)nicotinamide]
31 | < 0.5 µM | CS(=O)(=O)c1ccc(OC2CCN(C(=O)c3ccc(C(=O)NC4CCN(Cc5cc(F)cc(F)c5)CC4)nc3)CC2)cc1 [Compound 203, N-(1-(3,5-difluorobenzyl)piperidin-4-yl)-5-(4-(4-(methylsulfonyl)phenoxy)piperidine-1-carbonyl)picolinamide]
32 | < 0.5 µM | COc1ccc(CN2CCC(NC(=O)c3ccc(C(=O)N4CCC(C(=O)c5ccc(OC)cc5)CC4)nc3)CC2)cc1 [Compound 318, 6-(4-(4-methoxybenzoyl)piperidine-1-carbonyl)-N-(1-(4-methoxybenzyl)piperidin-4-yl) nicotinamide]
33 | < 0.5 µM | N#Cc1ccc(CN2CCC(NC(=O)c3ccc(C(=O)N4CCC(Oc5ccc(F)cc5F)CC4)cn3)CC2)cc1 [Compound 282, N-(1-(4-cyanobenzyl)piperidin-4-yl)-5-(4-(2,4-difluorophenoxy)piperidine-1-carbonyl)picolinamide]
